We go through 47 molecules from ChEMBL document CHEMBL1127594, “Inhibitors of acyl-CoA:cholesterol O-acyltransferase. 11. Structure-activity relationships of several series of compounds derived from N-(chlorocarbonyl) isocyanate” (J Med Chem, 1994).

pIC50: −log10 of the molar value.

The test system of assay [1] is Rattus norvegicus. In words: In vivo hypocholesterolemic activity was measured in an acute, cholesterol-fed rat model (APCC) at 30 mg/kg dose. The class given is functional.
Assay [2] addresses O-acyltransferase (Oryctolagus cuniculus, UniProt G1SFD9). As to the kind of experiment: In vitro Acyl coenzyme A:cholesterol acyltransferase inhibitory activity (IAI) was determined by measuring the incorporation of [1-14C]oleolyl-CoA into cholesterol esters by intestinal microsomes isolated from cholesterol-fed rabbits. The arrangement: species or system Intestine.

Chain of O-acyltransferase (G1SFD9 1-524): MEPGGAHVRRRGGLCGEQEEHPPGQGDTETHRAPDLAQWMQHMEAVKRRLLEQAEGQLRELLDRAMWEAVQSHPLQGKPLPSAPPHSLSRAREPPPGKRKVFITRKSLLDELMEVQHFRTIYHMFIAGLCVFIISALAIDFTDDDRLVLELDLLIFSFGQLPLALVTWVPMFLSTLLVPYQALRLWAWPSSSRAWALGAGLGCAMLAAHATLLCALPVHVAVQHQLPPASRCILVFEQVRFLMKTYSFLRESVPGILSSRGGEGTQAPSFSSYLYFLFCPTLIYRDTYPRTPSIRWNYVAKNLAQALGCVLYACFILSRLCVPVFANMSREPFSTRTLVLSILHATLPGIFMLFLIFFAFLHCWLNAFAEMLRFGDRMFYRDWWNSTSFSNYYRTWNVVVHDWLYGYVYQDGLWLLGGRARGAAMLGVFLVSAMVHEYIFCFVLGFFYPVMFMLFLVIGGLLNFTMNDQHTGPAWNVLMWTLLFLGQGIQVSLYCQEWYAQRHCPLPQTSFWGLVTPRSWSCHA

Consider `CC(C)c1cccc(C(C)C)c1OC(=O)NC(=O)SCCN1CCOCC1`, for which, in assay [1], the “Delta TC” value was <-33%. The same molecule had a pIC50 in assay [2] of 6.05.
With `CC(C)c1cccc(C(C)C)c1OC(=O)NC(=O)SCc1ccccc1`, the “Delta TC” value in assay [1] is <-43%. The pIC50 in assay [2] is 6.36.
For the molecule `CC(C)c1cccc(C(C)C)c1NC(=O)NC(=O)OC(c1ccccc1)c1ccccc1`, in assay [1], the “Delta TC” value is recorded as -3%. The pIC50 in assay [2] is 5.11.
On to `CCCCCCCCCCCCCCOC(=O)NC(=O)Oc1c(C(C)C)cccc1C(C)C`, for which, in assay [1], the “Delta TC” value is on record as <-59%. In assay [2], this molecule gave a pIC50 of 8.00.
As for `CCCCCCCCC(C)OC(=O)NC(=O)Nc1c(C(C)C)cccc1C(C)C` (centres undefined), the “Delta TC” value in assay [1] is reported as <-22%. This molecule also had a pIC50 in assay [2] of 6.12.
In the case of `CC(C)c1cccc(C(C)C)c1NC(=O)NC(=O)N1CCC(c2ccccc2)CC1`, the “Delta TC” value in assay [1] is listed as 3%. In addition, the pIC50 in assay [2] is 6.05.
Regarding `CCCCCC(C)OC(=O)NC(=O)Oc1c(C(C)C)cccc1C(C)C` (racemic), in assay [1], the “Delta TC” value is reported as <-60%. In assay [2], this molecule showed a pIC50 of 6.99.
On to `CCCCC[C@H](C)OC(=O)NC(=O)Oc1c(C(C)C)cccc1C(C)C`, for which the “Delta TC” value in assay [1] was -25%. In addition, in assay [2], the pIC50 was 7.01.
Consider `CC(C)c1cccc(C(C)C)c1NC(=O)NC(=O)N(c1ccccc1)c1ccccc1`, for which the “Delta TC” value in assay [1] is listed as <-49%. In assay [2], this molecule gave a pIC50 of 6.47.
Consider `CCCCCCCCCCCCCCOC(=O)NC(=O)Oc1c(OC)cc(OC)cc1OC`, for which the “Delta TC” value in assay [1] is -15%. The pIC50 in assay [2] is < 5.30.
For `Cc1cccc(C)c1OC(=O)NC(=O)Oc1c(C)cccc1C`, the “Delta TC” value in assay [1] is 4%. Also, in assay [2], the pIC50 is < 5.30.
In the case of `CCCCC[C@@H](C)OC(=O)NC(=O)Oc1c(C(C)C)cccc1C(C)C`, the “Delta TC” value in assay [1] is <-49%. In addition, the pIC50 in assay [2] was 6.89.
Consider `CC(C)c1cccc(C(C)C)c1NC(=O)NC(=O)Oc1c(C(C)C)cccc1C(C)C`, for which the “Delta TC” value in assay [1] was <-25%. The same molecule had a pIC50 in assay [2] of 6.01.
For `CC(C)c1cccc(C(C)C)c1OC(=O)NC(=O)Oc1ccccc1` the same measures were <-29% and 5.74.
On to `CCCCCCCCCCCCCCCCCCOC(=O)NC(=O)Oc1c(C(C)C)cccc1C(C)C`, for which the “Delta TC” value in assay [1] is on record as <-35%. In addition, in assay [2], the pIC50 is 6.00.
With `CCCCCCCCCCCOC(=O)NC(=O)Oc1c(C(C)C)cccc1C(C)C`, the “Delta TC” value in assay [1] is reported as <-65%. Moreover, the pIC50 in assay [2] is 6.85.
For the molecule `CCCCCCCCCCCCC(C)OC(=O)NC(=O)Oc1c(C(C)C)cccc1C(C)C` (racemic), the “Delta TC” value in assay [1] is <-50%. This molecule also showed a pIC50 in assay [2] of 7.77.
For `CCCCCC(C)OC(=O)NC(=O)Nc1c(C(C)C)cccc1C(C)C` (centres undefined) the same measures were <-22% and 5.97.
For `CC(C)c1cccc(C(C)C)c1NC(=O)NC(=O)N1c2ccccc2Cc2ccccc21` the same measures were -18% and 6.05.
`CCCCCCCCCCC(C)OC(=O)NC(=O)Oc1c(C(C)C)cccc1C(C)C` (racemic): the “Delta TC” value in assay [1] is on record as <-66%. The pIC50 in assay [2] is 7.31.
For `CC(C)c1cccc(C(C)C)c1OC(=O)NC(=O)N(c1ccccc1)c1ccccc1`, the “Delta TC” value in assay [1] is listed as -3%. The pIC50 in assay [2] is 6.77.
With `CC(C)c1cccc(C(C)C)c1OC(=O)NC(=O)Sc1c(C(C)C)cccc1C(C)C`, in assay [1], the “Delta TC” value was <-20%. The molecule also had a pIC50 in assay [2] of 5.49.
For `CCCCCCCCCCCCCOC(=O)NC(=O)Oc1c(C(C)C)cccc1C(C)C`, the “Delta TC” value in assay [1] was <-69%. In assay [2], this molecule showed a pIC50 of 8.05.
Take `CC(C)c1cccc(C(C)C)c1OC(=O)NC(=O)SCCc1ccccc1`: the “Delta TC” value in assay [1] was -30%. Besides, the negative-log IC50 (pIC50) in assay [2] was 6.06.
The like results for `CC(C)c1cccc(C(C)C)c1OC(=O)NC(=O)OC(c1ccccc1)c1ccccc1` were, in that order, <-44% and 6.46.
Turning to `CC(C)(C)c1cccc(C(C)(C)C)c1OC(=O)NC(=O)Oc1c(C(C)(C)C)cccc1C(C)(C)C`, the “Delta TC” value in assay [1] was <-23%. In assay [2], the negative-log IC50 (pIC50) was 5.92.
Regarding `CCCCCCCCCCCSC(=O)NC(=O)Oc1c(C(C)C)cccc1C(C)C`, the “Delta TC” value in assay [1] is given as <-54%. This molecule also had a pIC50 in assay [2] of 6.68.
In the case of `CC(C)c1cccc(C(C)C)c1NC(=O)NC(=O)N(Cc1ccccc1)C(C)C`, in assay [1], the “Delta TC” value was <-22%. Besides, the pIC50 in assay [2] was 6.12.
As for `CCCCCCCCCCOC(=O)NC(=O)Oc1c(C(C)C)cccc1C(C)C`, the “Delta TC” value in assay [1] is recorded as <-44%. This molecule had a negative-log IC50 (pIC50) in assay [2] of 7.13.
The like results for `CCCCCCOC(=O)NC(=O)Oc1c(C(C)C)cccc1C(C)C` were, in that order, <-38% and 7.28.
`CCCCCCCCCCCCOC(=O)NC(=O)Oc1c(C(C)C)cccc1C(C)C`: in assay [1], the “Delta TC” value is <-52%. Further, the pIC50 in assay [2] is 7.68.
For `CC(C)c1cccc(C(C)C)c1OC(=O)NC(=O)OCc1ccccc1`, in assay [1], the “Delta TC” value is on record as -23%. For the same molecule, the negative-log IC50 (pIC50) in assay [2] was 7.11.
For the molecule `CCCCCCCCOC(=O)NC(=O)Oc1c(C(C)C)cccc1C(C)C`, the “Delta TC” value in assay [1] was <-47%. Moreover, in assay [2], the pIC50 is 6.60.
For the molecule `CCCCCCCC(C)OC(=O)NC(=O)Oc1c(C(C)C)cccc1C(C)C` (racemic), the “Delta TC” value in assay [1] is <-56%. Moreover, in assay [2], the negative logarithm of the IC50 (pIC50) is 7.01.
The like results for `COC(=O)C(OC(=O)NC(=O)Oc1c(C(C)C)cccc1C(C)C)c1ccccc1` (centres undefined) were, in that order, -3% and 6.03.
Turning to `CC(C)c1cccc(C(C)C)c1OC(=O)NC(=O)OCCCc1ccccc1`, the “Delta TC” value in assay [1] was -24%. Also, the pIC50 in assay [2] is 6.18.
For `O=C(NC(=O)Oc1c(-c2ccccc2)cccc1-c1ccccc1)Oc1c(-c2ccccc2)cccc1-c1ccccc1` the same measures were 0% and 6.64.
Consider `CC(C)c1cccc(C(C)C)c1OC(=O)NC(=O)Oc1c(C(C)C)cccc1C(C)C`, for which the “Delta TC” value in assay [1] was -24%. Besides, the pIC50 in assay [2] was 6.96.
Take `CC(C)c1cccc(C(C)C)c1OC(=O)NC(=O)SC1CCCCC1`: in assay [1], the “Delta TC” value is on record as <-63%. In assay [2], this molecule gave a negative-log IC50 (pIC50) of 7.01.
As for `CCCCCCCCCCCCSC(=O)NC(=O)Sc1c(C(C)C)cccc1C(C)C`, the “Delta TC” value in assay [1] was <-36%. Besides, the pIC50 in assay [2] was < 5.30.
With `CCCCCCCCCCSC(=O)NC(=O)Oc1c(C(C)C)cccc1C(C)C`, the “Delta TC” value in assay [1] is reported as <-52%. In addition, the pIC50 in assay [2] was 6.89.
For the molecule `CCCCCCCCCCCCC(C)OC(=O)N(C)C(=O)Oc1c(C(C)C)cccc1C(C)C` (racemic), in assay [1], the “Delta TC” value is on record as -8%. In assay [2], the pIC50 is < 6.00.
`CC(C)c1cccc(C(C)C)c1OC(=O)NC(=O)Sc1ccccc1`: in assay [1], the “Delta TC” value is recorded as <-37%. Moreover, the pIC50 in assay [2] was < 5.30.
With `CCCCCCCCCCCCC(C)OC(=O)NC(=O)Nc1c(C(C)C)cccc1C(C)C` (centres undefined), in assay [1], the “Delta TC” value is reported as <-33%. Further, in assay [2], the negative logarithm of the IC50 (pIC50) is 7.34.
In the case of `CCCCCCCCN(CCCCCCCC)C(=O)NC(=O)Nc1c(C(C)C)cccc1C(C)C`, the “Delta TC” value in assay [1] is reported as 3%. In addition, in assay [2], the pIC50 was 6.46.
With `CC(C)c1cccc(C(C)C)c1NC(=O)NC(=O)N(Cc1ccccc1)Cc1ccccc1`, the “Delta TC” value in assay [1] is given as -14%. The molecule further showed a pIC50 in assay [2] of 5.98.
Take `CCCCC(C)(C)OC(=O)NC(=O)Oc1c(C(C)C)cccc1C(C)C`: the “Delta TC” value in assay [1] is -29%. This molecule gave a pIC50 in assay [2] of 7.19.
